Values of other authors, collected in paper PMC6525986 (Theranostics, 2019).

Target: protein arginine methyltransferase 5 (PRMT5) (Homo sapiens, UniProt O14744)
Assay: PRMT5 enzymatic inhibition assay
Format: biochemical

Chain of protein arginine methyltransferase 5 (PRMT5) (O14744 2-637): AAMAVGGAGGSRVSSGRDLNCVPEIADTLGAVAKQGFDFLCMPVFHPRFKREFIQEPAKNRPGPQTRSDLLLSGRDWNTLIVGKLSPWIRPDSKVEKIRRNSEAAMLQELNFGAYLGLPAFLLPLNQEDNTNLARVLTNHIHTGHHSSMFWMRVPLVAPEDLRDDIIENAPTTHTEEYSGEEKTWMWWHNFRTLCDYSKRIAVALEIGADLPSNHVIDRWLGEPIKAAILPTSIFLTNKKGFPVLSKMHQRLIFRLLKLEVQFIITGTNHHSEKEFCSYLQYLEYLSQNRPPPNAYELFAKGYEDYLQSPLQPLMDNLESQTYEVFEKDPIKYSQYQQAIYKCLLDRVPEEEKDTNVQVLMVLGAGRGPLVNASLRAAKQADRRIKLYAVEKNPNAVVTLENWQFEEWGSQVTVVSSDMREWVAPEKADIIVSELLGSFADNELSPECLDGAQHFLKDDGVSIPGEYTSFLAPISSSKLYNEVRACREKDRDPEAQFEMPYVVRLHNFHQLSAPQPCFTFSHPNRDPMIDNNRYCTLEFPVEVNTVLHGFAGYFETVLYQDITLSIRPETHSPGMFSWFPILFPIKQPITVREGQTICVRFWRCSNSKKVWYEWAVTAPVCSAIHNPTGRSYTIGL

Q: For DW14800 [compound 39], which IC50 is on record?
A: 17 nM
